Measured values: patent US20250270170A1, “2,3-DIMETHOXY-5-METHYL-1,4-BENZOQUINONE ALKYL ALCOHOL DERIVATIVE AND USE THEREOF” (BEIJING ANJIANXI BIO-MEDICAL TECHNOLOGY CO., LTD., priority 2021, published 2025)

Legend:
A549 cells = assay: CCK-8 cell proliferation assay, A549; assay type: cell-based; details: Homo sapiens
Description: (1) Cells in the logarithmic growth phase were taken and digested to make a cell suspension. 20 μl of the cell suspension was taken with a pipette, and added to a CountStar disposable cell counting plate for cell counting, and the counting results were recorded. The cell concentration was adjusted to 30,000 to 40,000 cells/ml (note: different cells have different growth rates, so the number of cells in each well was slightly different).
(2) A 96-well plate was taken. Since the wells in the outermost circle of the culture plate were easy to evaporate and dry, causing inaccurate volumes, and increasing errors, 100 μl of PBS was added to the wells in the outermost circle, which were not used as assay wells.
(3) The adjusted cell suspension was added to the 96-well plate, with 100 μl in each well, resulting approximately 3000 to 4000 cells in each well. The plate was placed in a 37° C. incubator under the condition of 5% CO2 for cell culture, and the drug was added when the cells adhered to the wall.
(4) Drug dilution. The concentration gradient was set as: 0 μM, 10 μM, 50 μM, 100 μM, and 200 μM, with 3 duplicates for each concentration. In addition, blank control wells containing only culture medium and drug without cells were also set.
(5) The plate was incubated in the incubator for 24 h, 48 h and 72 h, respectively. After reaching the set time point, the 96-well plate was taken out from the incubator, and 10 μl of CCK-8 reagent was added to each well, taking care to avoid bubbles. The plate was shaked to mix evenly, and put back into the incubator to culture for another 2 hours.
(6) To detect the absorbance, the 96-well plate was placed in a […], and the absorbance value (OD value) at 450 nm was detected. The data was recorded. Cell viability=(OD value of the assay well−OD value of the blank control well)/(OD value of the solvent control well−OD value of the blank control well)×100%.
(7) The data was imported into GraphPad Prism5 for plotting. The IC50 values were calculated, and the curves were drawn.

NCI-H460 cells = assay: Flow cytometry for cell cycle detection, NCI-H460; assay type: cell-based, human
Description: (1) Cells were inoculated in a 6-well plate. When about 50% of the cells were adherent and fused, the compound of formula (I) at a concentration of 0 μM, 10 μM, 30 μM, and 90 μM were added, respectively. The plate was placed in an incubator at 37° C. with 5% CO2 to continue culturing, and three time points were set, which were 24 h, 48 h and 72 h, respectively.
(2) After reaching the designated time point, the cell culture plate was taken out from the incubator, and placed in a biological safety cabinet. A 4 ml centrifuge tube was taken and marked. The supernatant in each well was pipetted out and added to the corresponding 4 ml centrifuge tube. The cells were gently washed with PBS, and the PBS was added to the corresponding centrifuge tube. An appropriate amount of trypsin was added to each well to digest the cells. When the cells were digested to a moderate degree, the old culture medium from the centrifuge tube was added to the corresponding well. The cells were gently pipetted with apipette to form a single-cell suspension, which was pipetted back into the original centrifuge tube. The tube was immediately centrifuged at 1500 rpm for 5 minutes. Then, the supernatant was discarded and the precipitate was retained.
(3) 2 ml of pre-chilled PBS was added to the centrifuge tube, and centrifuged again at 1500 rpm for 5 minutes. The supernatant was discarded, and the cell debris was removed.
(4) 1 ml of 75% ethanol was added while pipetting the cells, to make the cells appear as single as possible. Then, the cells were fixed at 4° C. overnight or stored at −20° C. for long-term storage (can be stored for 1 week).
(5) The fixed cells were taken out, and centrifuged at 1000 rpm for 5 minutes. The ethanol was discarded, and pre-chilled PBS was added to wash the cells. Then, the cells were centrifuged at 1000 rpm for 5 min to remove the residual ethanol on the cells.
(6) A cell cycle detection kit from Wuhan Promoter Biology Co., Ltd. was used. 100 μl of RNaseA was added, and incubated in a 37° C. water bath for 30 minutes.
(7) 400 μl of PI was added and mixed well, and incubated at 4° C. in dark for 30 minutes.
(8) The cell cycle was detected by upflow cytometry.

[1] = Solubility of the compound in organic solvents; assay type: physicochemical; details: organic solvents (DMSO and isopropyl alcohol 3:7 selected)
Description: The containers with DMSO and isopropyl alcohol were opened in a biological safety cabinet. A 15 ml centrifuge tube was taken, and 3 ml of DMSO and 7 ml of isopropyl alcohol were added to make a mixed solvent. The molecular weight of the compound of formula (I) is 678.22 g/mol. 40.69 mg of an original drug of the compound of formula (I) was weighed, and 4 ml of the mixed solvent was added. The mixture was mixed well by pipetting. […] The solution was diluted according to the required concentration when being used.

Work on `COC1=C(OC)C(=O)C(CCCCCCCCCCOC(=O)Cc2c(C)n(C(=O)c3ccc(Cl)cc3)c3ccc(OC)cc23)=C(C)C1=O` [compound of formula (I)] yielded an IC50 (A549 cells; 24 h) of 213.2 ± 1.22 µM, an IC50 (A549 cells; 48 h) of 55.5 ± 1.84 µM and an IC50 (A549 cells; 72 h) of 39.7 ± 0.98 µM. The “proportion of S phase cells” value (NCI-H460 cells; 10 μM, 24 h) was 26.03%, the “proportion of S phase cells” value (NCI-H460 cells; 10 μM, 48 h) was 29.62% and the “proportion of S phase cells” value (NCI-H460 cells; 10 μM, 72 h) was 21.61%. The “proportion of S phase cells” value (NCI-H460 cells; 30 μM, 24 h) was 13.15%, the “proportion of S phase cells” value (NCI-H460 cells; 30 μM, 48 h) was 16.02% and the “proportion of S phase cells” value (NCI-H460 cells; 30 μM, 72 h) was 20.98%. For the same compound, the “proportion of S phase cells” value (NCI-H460 cells; 90 μM, 24 h) was 9.76%, the “proportion of S phase cells” value (NCI-H460 cells; 90 μM, 48 h) was 0.97% and the “proportion of S phase cells” value (NCI-H460 cells; 90 μM, 72 h) was 3.36%. The “solubility in organic solvents” value [1] was “easily soluble”.
